Laboratory results taken from patent US8455534B2, “Estrogen receptor modulators and uses thereof” (Aragon Pharmaceuticals, Inc., priority 2010, dated 2013).

Legend:
[1] = test system: MCF-7 cells; test: Breast Cancer Cell Viability Assay (MCF-7, CellTiter-Glo); type: cell-based; conditions: 5 days' compound exposure; for IC50: Homo sapiens, MCF7, 120 h
How it was run: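 MCF-7 cells, 320 per well in RPMI with 10% FBS and 20 mM HEPES, adhered overnight, then exposed 5 days to an eleven-point semilog dilution (final 0.3-0.000003 μM). CellTiter-Glo luminescence read; % viability = (sample − cell-free background)/(untreated − background) × 100.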

[2] = molecular target: T1, ER-α (Homo sapiens, UniProt P03372); test: Breast Cancer Cell ER-α In Cell Western Assay (SP1); type: cell-based; conditions: MCF-7 cells, SP1 antibody, 4 or 24 hr post compound addition; for Emax: MCF7, read-out: ER-α In Cell Western Assay (SP1) Max Response; for DC50: read-out: ER-α In Cell Western Assay (SP1) IC50
T1 sequence (P03372 1-595): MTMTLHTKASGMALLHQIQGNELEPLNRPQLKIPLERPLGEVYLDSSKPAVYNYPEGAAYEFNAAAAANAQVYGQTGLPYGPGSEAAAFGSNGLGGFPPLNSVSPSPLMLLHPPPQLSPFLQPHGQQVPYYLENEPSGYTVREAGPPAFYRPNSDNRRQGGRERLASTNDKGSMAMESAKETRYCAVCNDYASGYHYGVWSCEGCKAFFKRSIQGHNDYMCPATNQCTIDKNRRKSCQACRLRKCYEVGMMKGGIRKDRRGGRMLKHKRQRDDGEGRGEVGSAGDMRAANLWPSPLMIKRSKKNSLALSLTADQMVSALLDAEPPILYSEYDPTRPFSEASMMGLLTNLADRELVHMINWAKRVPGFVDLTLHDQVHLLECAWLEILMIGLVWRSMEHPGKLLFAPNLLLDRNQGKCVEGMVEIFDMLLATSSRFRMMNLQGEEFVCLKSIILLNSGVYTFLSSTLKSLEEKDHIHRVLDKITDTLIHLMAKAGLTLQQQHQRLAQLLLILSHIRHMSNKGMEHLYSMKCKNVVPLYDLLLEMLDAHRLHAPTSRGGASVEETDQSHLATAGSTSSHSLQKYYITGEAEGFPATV
How it was run: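 ER-α protein levels measured by in-cell western with SP1 antibody, ratioed to DRAQ5 DNA signal and given as percent of untreated controls. Compounds added at 0.3–0.000003 μM final (eleven semilog points) to adherent MCF-7 cells in stripped serum; exposure 4 or 24 h before fixation.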

IC50 [1] [µM]	Emax [2] [%]	DC50 [2] [µM]	SMILES	MCF7 Viability Assay Max Response [1]
≤ 0.1	≥ 40	≤ 0.1	CC/C(=C(/c1ccc(/C=C/C(=O)O)cc1)c1cc(F)c2[nH]ncc2c1)c1ccc(Cl)cc1Cl [Compound 134, (E)-3-(4-((E)-2-(2,4-Dichlorophenyl)-1-(7-fluoro-1H-indazol-5-yl)but-1-en-1-yl)phenyl)acrylic acid]	++ (++ = a single % value ≧ 40%)
> 0.1	≥ 40	≤ 0.1	CC/C(=C(/c1ccc(/C=C(\Cl)C(=O)O)cc1)c1ccc2[nH]ncc2c1)c1ccccc1 [Compound 104, (Z)-3-(4-((E)-1-(1H-Indazol-5-yl)-2-phenylbut-1-en-1-yl)phenyl)-2-chloroacrylic acid]	++ (++ = a single % value ≧ 40%)
≤ 0.1	≥ 40	≤ 0.1	Cn1ncc2cc(/C(=C(/c3ccccc3)C3CCC3)c3ccc(/C=C/C(=O)O)cc3)ccc21 [Compound 146, (E)-3-(4-((E)-2-Cyclobutyl-1-(1-methyl-1H-indazol-5-yl)-2-phenylvinyl)phenyl)acrylic acid]	++ (++ = a single % value ≧ 40%)
> 0.1	≥ 40	≤ 0.1	CC/C(=C(/c1ccc(/C=C/C(=O)O)cc1)c1ccc2[nH]ncc2c1)c1cccc(CO)c1 [Compound 6, (E)-3-(4-((E)-2-(3-(Hydroxymethyl)phenyl)-1-(1H-indazol-5-yl)but-1-en-1-yl)phenyl)acrylic acid]	++ (++ = a single % value ≧ 40%)
≤ 0.1	≥ 40	≤ 0.1	CC/C(=C(/c1ccc(/C=C/C(=O)O)cc1)c1ccc2[nH]ncc2c1)c1ccc(Cl)cc1Cl [Compound 113, (E)-3-(4-((E)-2-(2,4-Dichlorophenyl)-1-(1H-indazol-5-yl)but-1-en-1-yl)phenyl)acrylic acid]	++ (++ = a single % value ≧ 40%)
≤ 0.1	≥ 40		CC/C(=C(/c1ccc(/C=C/C(=O)O)cc1)c1ccc2[nH]ncc2c1)c1ccc(Cl)cc1 [Compound 4, (E)-3-(4-((E)-2-(4-Chlorophenyl)-1-(1H-indazol-5-yl)but-1-en-1-yl)phenyl)acrylic acid]	++ (++ = a single % value ≧ 40%)
≤ 0.1	≥ 40	≤ 0.1	CC/C(=C(/c1ccc(/C=C/C(=O)O)cc1)c1ccc2[nH]ncc2c1)c1cccc(F)c1 [Compound 17, (E)-3-(4-((E)-2-(3-Fluorophenyl)-1-(1H-indazol-5-yl)but-1-en-1-yl)phenyl)acrylic acid]	++ (++ = a single % value ≧ 40%)
≤ 0.1	≥ 40	≤ 0.1	CC/C(=C(/c1ccc(/C=C/C(=O)O)cc1)c1ccc2[nH]ncc2c1)c1ccc(OC)cc1C [Compound 128, (E)-3-(4-((E)-1-(1H-Indazol-5-yl)-2-(4-methoxy-2-methylphenyl)but-1-en-1-yl)phenyl)acrylic acid]	++ (++ = a single % value ≧ 40%)
≤ 0.1	≥ 40	≤ 0.1	CC/C(=C(/c1ccc(/C=C/C(=O)O)cc1)c1ccc2[nH]ncc2c1)c1ccc(F)cc1F [Compound 22, (E)-3-(4-((E)-2-(2,4-Difluorophenyl)-1-(1H-indazol-5-yl)but-1-en-1-yl)phenyl)acrylic acid]	++ (++ = a single % value ≧ 40%)
> 0.1	≥ 40	> 0.1	CC/C(=C(/c1ccc(/C=C/C(=O)O)cc1)c1cc2cn[nH]c2cc1C)c1ccccc1 [Compound 38, (E)-3-(4-((E)-1-(6-Methyl-1H-indazol-5-yl)-2-phenylbut-1-en-1-yl)phenyl)acrylic acid]	++ (++ = a single % value ≧ 40%)
≤ 0.1	≥ 40	≤ 0.1	CCC/C(=C(/c1ccc(/C=C/C(=O)O)cc1)c1ccc2[nH]ncc2c1)c1ccccc1 [Compound 43, (E)-3-(4-((E)-1-(1H-Indazol-5-yl)-2-phenylpent-1-en-1-yl)phenyl)acrylic acid]	++ (++ = a single % value ≧ 40%)
> 0.1	≥ 40	≤ 0.1	CC/C(=C(/c1ccc(/C=C/C(=O)O)cc1)c1ccc2[nH]ncc2c1)c1cc(C#N)ccc1C [Compound 143, (E)-3-(4-((E)-2-(5-Cyano-2-methylphenyl)-1-(1H-indazol-5-yl)but-1-en-1-yl)phenyl)acrylic acid]	++ (++ = a single % value ≧ 40%)
≤ 0.1	≥ 40	≤ 0.1	CC(C)/C(=C(/c1ccc(/C=C/C(=O)O)cc1)c1ccc2[nH]ncc2c1)c1ccc(F)cc1Cl [Compound 82, (E)-3-(4-((E)-2-(2-Chloro-4-fluorophenyl)-1-(1H-indazol-5-yl)-3-methylbut-1-en-1-yl)phenyl)acrylic acid]	++ (++ = a single % value ≧ 40%)
≤ 0.1	≥ 40	≤ 0.1	CC/C(=C(/c1ccc(/C=C/C(=O)O)cc1)c1ccc2[nH]ncc2c1)c1ccc(OC)cc1F [Compound 129, (E)-3-(4-((E)-2-(2-Fluoro-4-methoxyphenyl)-1-(1H-indazol-5-yl)but-1-en-1-yl)phenyl)acrylic acid]	++ (++ = a single % value ≧ 40%)
> 0.1	< 40	> 0.1	CC/C(=C(/c1ccc(/C=C/C(=O)O)cc1)c1ccc2[nH]ncc2c1)c1cc(S(C)(=O)=O)ccc1C [Compound 127, (E)-3-(4-((E)-1-(1H-Indazol-5-yl)-2-(2-methyl-5-(methylsulfonyl)phenyl)but-1-en-1-yl)phenyl)acrylic acid]	+ (+ = a single % value < 40%)
≤ 0.1	≥ 40	≤ 0.1	CC/C(=C(/c1ccc(/C=C/C(=O)O)cc1)c1cc2cn[nH]c2cc1Cl)c1ccccc1 [Compound 50, (E)-3-(4-((E)-1-(6-Chloro-1H-indazol-5-yl)-2-phenylbut-1-en-1-yl)phenyl)acrylic acid]	++ (++ = a single % value ≧ 40%)
> 0.1	≥ 40	> 0.1	CC/C(=C(/c1ccc(/C=C/C(=O)O)cc1)c1ccc2[nH]nc(Cl)c2c1)c1ccccc1 [Compound 40, (E)-3-(4-((E)-1-(3-Chloro-1H-indazol-5-yl)-2-phenylbut-1-en-1-yl)phenyl)acrylic acid]	++ (++ = a single % value ≧ 40%)
≤ 0.1	≥ 40	≤ 0.1	O=C(O)/C=C/c1ccc(/C(=C(\c2ccc(Cl)cc2Cl)C2CC2)c2ccc3[nH]ncc3c2)cc1 [Compound 125, (E)-3-(4-((E)-2-Cyclopropyl-2-(2,4-dichlorophenyl)-1-(1H-indazol-5-yl)vinyl)phenyl)acrylic acid]	++ (++ = a single % value ≧ 40%)
≤ 0.1	≥ 40	≤ 0.1	CCOC(=O)/C=C/c1ccc(/C(=C(/CC)c2ccccc2)c2ccc3[nH]ncc3c2)cc1 [Compound 1, (E)-Ethyl 3-(4-((E)-1-(1H-indazol-5-yl)-2-phenylbut-1-en-1-yl)phenyl)acrylate]	+ (+ = a single % value < 40%)
